The record followed here is PubChem BioAssay AID330 (DTP/NCI, 2004).

Values joined by “and” are separate entries in the source; they are usually repeats but may differ in a detail not shown here. Equal entries are not always repeated. Inconclusive results and toxic doses are left out.

The assay deals with P388 leukemia ip, CD2F1 mice, survival T/C. Description: NCI In Vivo Anticancer Drug Screen. Data for tumor model P388 Leukemia (intraperitoneal) in CD2F1 (CDF1) mice. The following applies: endpoint: median survival time, higher = longer survival. An outline of the steps:
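Mice carrying the transplanted tumor received test compound or vehicle. Survival was recorded in each group, and the value is the treated-group measurement divided by that of the vehicle-treated control group.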

The mark [1] stands for this setting: dose: 60.0 mg/kg/injection, schedule: Q01DX005 (ip), vehicle: saline with Tween-80.
The mark [2] stands for this setting: dose: 50.0 mg/kg/injection, schedule: Q01DX009 (ip), vehicle: saline with Tween-80.
Where [3] appears, read: dose: 100.0 mg/kg/injection, schedule: Q01DX009 (ip), vehicle: saline with Tween-80.
Where [4] appears, read: dose: 200.0 mg/kg/injection, schedule: Q01DX009 (ip), vehicle: saline with Tween-80.
Where [5] appears, read: dose: 100.0 mg/kg/injection, schedule: Q04DX003 (ip), vehicle: Klucel (hydroxypropylcellulose) (HPC).
Where [6] appears, read: dose: 200.0 mg/kg/injection, schedule: Q04DX003 (ip), vehicle: Klucel (hydroxypropylcellulose) (HPC).
Where [7] appears, read: dose: 50.0 mg/kg/injection, schedule: Q01DX009 (ip), vehicle: Klucel (hydroxypropylcellulose) (HPC).
The mark [8] stands for this setting: dose: 100.0 mg/kg/injection, schedule: Q01DX009 (ip), vehicle: Klucel (hydroxypropylcellulose) (HPC).
Where [9] appears, read: dose: 50.0 mg/kg/injection, schedule: Q01DX009 (ip), vehicle: saline.
The mark [10] stands for this setting: dose: 120.0 mg/kg/injection, schedule: Q01DX005 (ip), vehicle: saline with Tween-80.
[11] abbreviates: dose: 240.0 mg/kg/injection, schedule: Q01DX005 (ip), vehicle: saline with Tween-80.
[12] abbreviates: dose: 50.0 mg/kg/injection, schedule: Q01DX005 (ip), vehicle: saline with Tween-80.
Setting [13] is: dose: 100.0 mg/kg/injection, schedule: Q01DX005 (ip), vehicle: saline with Tween-80.
Where [14] appears, read: dose: 200.0 mg/kg/injection, schedule: Q01DX005 (ip), vehicle: saline with Tween-80.
The mark [15] stands for this setting: dose: 50.0 mg/kg/injection, schedule: Q01DX005 (ip), vehicle: Klucel (hydroxypropylcellulose) (HPC).
The mark [16] stands for this setting: dose: 25.0 mg/kg/injection, schedule: Q01DX009 (ip), vehicle: saline with Tween-80.
Where [17] appears, read: dose: 100.0 mg/kg/injection, schedule: Q01DX009 (ip), vehicle: saline.
Setting [18] is: dose: 200.0 mg/kg/injection, schedule: Q01DX009 (ip), vehicle: saline.

As for `O=C(CCCc1ccc(N(CCCl)CCCl)cc1)NCC(O)C(O)C(O)C(O)CO` (configuration not stated), the T/C is 187 % of control (dose: 15.0 mg/kg/injection, schedule: Q01DX005 (ip), vehicle: saline with Tween-80); 201 % of control and 206 % of control (dose: 30.0 mg/kg/injection, schedule: Q01DX005 (ip), vehicle: saline with Tween-80); 235 % of control and 250 % of control under setting [1].

Consider `O=C1C2CC3CC4C(=O)C5CC1C1C2C3C4C51` (configuration not stated), for which the T/C is 94 % of control under setting [2], 102 % of control under setting [3] and 97 % of control under setting [4].

`Brc1cnc2ccccn12`: the T/C is 101 % of control under setting [2], 102 % of control under setting [3] and 114 % of control under setting [4].

In the case of `COc1ccc(-c2nn(C)c3c2C(=O)CCC3)cc1OC`, the T/C under setting [5] was 94 % of control and the T/C under setting [6] was 99 % of control.

Consider `Cc1cnc(C=O)c2cccc([N+](=O)[O-])c12`, for which the T/C under setting [7] was 105 % of control and the T/C under setting [8] is 112 % of control.

Take `Clc1ccc2ccc3ccccc3c2n1`: the T/C runs as follows: (dose: 12.5 mg/kg/injection, schedule: Q01DX009 (ip), vehicle: saline) 101 % of control; (dose: 25.0 mg/kg/injection, schedule: Q01DX009 (ip), vehicle: saline) 102 % of control; under setting [9], 101 % of control and 94 % of control.

Consider `Cc1cccc(NC(=O)C(=O)C(C#N)c2c(Cl)cccc2Cl)c1C` (configuration not stated), for which the T/C was 102 % of control under setting [1], 96 % of control under setting [10] and 100 % of control under setting [11].

`O=C(C1CC2CCN1CC2)N1CCN(C(=O)C2CC3CCN2CC3)CC1` (configuration not stated): the T/C reads like this: (dose: 1.56 mg/kg/injection, schedule: Q01DX005 (ip), vehicle: saline) 98 % of control; (dose: 3.12 mg/kg/injection, schedule: Q01DX005 (ip), vehicle: saline) 102 % of control and 96 % of control; (dose: 6.25 mg/kg/injection, schedule: Q01DX005 (ip), vehicle: saline) 97 % of control; under setting [1], 101 % of control; under setting [10], 101 % of control.

Turning to `O=C(Oc1ccccc1[N+](=O)[O-])C1CCCN1C(=O)OCc1ccccc1` (configuration not stated), the T/C (dose: 25.0 mg/kg/injection, schedule: Q01DX005 (ip), vehicle: saline with Tween-80) is 104 % of control; the T/C under setting [12] was 109 % of control; the T/C under setting [13] was 102 % of control; the T/C under setting [14] was 99 % of control.

As for `CCc1nc(N)nc(N)c1-c1ccc(N(C)Cc2ccccc2)c(N)c1`, the T/C is 96 % of control under setting [15]; 93 % of control (dose: 100.0 mg/kg/injection, schedule: Q01DX005 (ip), vehicle: Klucel (hydroxypropylcellulose) (HPC)); 103 % of control (dose: 200.0 mg/kg/injection, schedule: Q01DX005 (ip), vehicle: Klucel (hydroxypropylcellulose) (HPC)).

On to `CN(C)/C=C1\C(=O)O[C@H]2CCC[C@@]12C`, for which the T/C by setting is: (dose: 100.0 mg/kg/injection, schedule: Q01DX001 (ip), vehicle: saline with Tween-80) 107 % of control; (dose: 200.0 mg/kg/injection, schedule: Q01DX001 (ip), vehicle: saline with Tween-80) 106 % of control.

Take `CON(Cc1ccc(C(=O)NC(C)C)cc1)Cc1ccc(C(=O)NC(C)C)cc1`: the T/C reads like this: (dose: 25.0 mg/kg/injection, schedule: Q01DX009 (ip), vehicle: other) 94 % of control; (dose: 50.0 mg/kg/injection, schedule: Q01DX009 (ip), vehicle: other) 100 % of control; (dose: 100.0 mg/kg/injection, schedule: Q01DX009 (ip), vehicle: other) 92 % of control.

In the case of `O=CNc1ccc(/C=C\c2ccnc3ccccc23)cc1`, the T/C reads like this: (dose: 3.13 mg/kg/injection, schedule: Q01DX009 (ip), vehicle: saline with Tween-80) 109 % of control; (dose: 6.25 mg/kg/injection, schedule: Q01DX009 (ip), vehicle: saline with Tween-80) 100 % of control; (dose: 12.5 mg/kg/injection, schedule: Q01DX009 (ip), vehicle: saline with Tween-80) 100 % of control; under setting [16], 91 % of control.

In the case of `C[As](C)SC1CCC2(C)C(=CCC3C4CCC(=O)C4(C)CCC32)C1` (configuration not stated), the T/C runs as follows: (dose: 12.5 mg/kg/injection, schedule: Q01DX009 (ip), vehicle: distilled water + Tween-80) 92 % of control; (dose: 25.0 mg/kg/injection, schedule: Q01DX009 (ip), vehicle: distilled water + Tween-80) 89 % of control and 96 % of control; (dose: 50.0 mg/kg/injection, schedule: Q01DX009 (ip), vehicle: distilled water + Tween-80) 107 % of control and 97 % of control; (dose: 100.0 mg/kg/injection, schedule: Q01DX009 (ip), vehicle: distilled water + Tween-80) 119 % of control and 121 % of control; (dose: 200.0 mg/kg/injection, schedule: Q01DX009 (ip), vehicle: distilled water + Tween-80) 107 % of control and 90 % of control.

Regarding `O=C(O)CCN1c2ccccc2Sc2ccccc21`, the T/C is 89 % of control under setting [7]; 100 % of control under setting [8]; 99 % of control (dose: 200.0 mg/kg/injection, schedule: Q01DX009 (ip), vehicle: Klucel (hydroxypropylcellulose) (HPC)); 101 % of control (dose: 400.0 mg/kg/injection, schedule: Q01DX009 (ip), vehicle: Klucel (hydroxypropylcellulose) (HPC)).

With `O=C(Cc1nc2ccc(Cl)cc2[nH]c1=O)c1ccncc1`, the T/C under setting [1] was 94 % of control, the T/C under setting [10] was 100 % of control and the T/C under setting [11] was 119 % of control.

`CCCCCCCCCCCCCC#CC(=O)OC`: the T/C is 104 % of control under setting [9], 106 % of control under setting [17] and 106 % of control under setting [18].

Regarding `Cn1c(=O)c2nc3n(c2n(C)c1=O)CCC(C)(c1ccccc1)O3` (configuration not stated), the T/C runs as follows: under setting [1], 96 % of control; under setting [10], 91 % of control; under setting [11], 91 % of control.

Take `Nc1ccc(S(=O)(=O)F)cc1Cl`: the T/C is, setting by setting: under setting [9], 100 % of control; under setting [17], 97 % of control; under setting [18], 111 % of control.

As for `CC(C)C1OC2(CCCC2)OCC1(C)C` (configuration not stated), the T/C was 103 % of control under setting [5]; 103 % of control under setting [6]; 100 % of control (dose: 400.0 mg/kg/injection, schedule: Q04DX003 (ip), vehicle: Klucel (hydroxypropylcellulose) (HPC)).

Consider `COc1c(C#N)c2c(c(OC)c1OC)-c1ccc(OC)c(=O)cc1[C@@H](NC(C)=O)CC2`, for which the T/C (dose: 3.12 mg/kg/injection, schedule: Q01DX009 (ip), vehicle: Klucel (hydroxypropylcellulose) (HPC)) is 113 % of control.

As to `NCCCCC(C(=O)O)N(C(=O)OCc1ccccc1)C(=O)OCc1ccccc1` (configuration not stated), the T/C was 106 % of control under setting [12], 101 % of control under setting [13] and 97 % of control under setting [14].

With `CC(Br)CN(CC(C)Br)c1ccc(-c2ccccc2)cc1` (configuration not stated), the T/C (dose: 12.5 mg/kg/injection, schedule: Q01DX009 (ip), vehicle: Klucel (hydroxypropylcellulose) (HPC)) was 154 % of control; the T/C (dose: 25.0 mg/kg/injection, schedule: Q01DX009 (ip), vehicle: Klucel (hydroxypropylcellulose) (HPC)) is 164 % of control; the T/C under setting [7] is 176 % of control and 181 % of control; the T/C under setting [8] was 184 % of control.

Consider `C=CS(=O)(=O)c1ccc(Nc2cc(S(=O)(=O)O)c(N)c3c2C(=O)c2ccccc2C3=O)cc1`, for which the T/C reads like this: under setting [16], 116 % of control and 120 % of control; under setting [2], 104 % of control and 115 % of control and 123 % of control; under setting [3], 107 % of control and 120 % of control and 123 % of control; under setting [4], 105 % of control and 118 % of control.

Take `O=C1N/C(=N/O)CC(NO)N1` (configuration not stated): the T/C (dose: 100.0 mg/kg/injection, schedule: Q04DX002 (ip), vehicle: Klucel (hydroxypropylcellulose) (HPC)) was 97 % of control; the T/C (dose: 200.0 mg/kg/injection, schedule: Q04DX002 (ip), vehicle: Klucel (hydroxypropylcellulose) (HPC)) was 100 % of control; the T/C (dose: 400.0 mg/kg/injection, schedule: Q04DX002 (ip), vehicle: Klucel (hydroxypropylcellulose) (HPC)) is 102 % of control.

Consider `Cc1ccc(NCCC2CCCN3CCCCC23)c2c(=O)c3ccccc3sc12` (configuration not stated), for which the T/C is 100 % of control (dose: 12.5 mg/kg/injection, schedule: Q01DX005 (ip), vehicle: distilled water + Tween-80) and 91 % of control (dose: 25.0 mg/kg/injection, schedule: Q01DX005 (ip), vehicle: distilled water + Tween-80).

For `OCCN=Cc1ccccc1O.OCCN=Cc1ccccc1O.[Cu]`, the T/C under setting [15] was 110 % of control.
